This passage reports IC50 results from patent US10961238B2, “Modulators of hedgehog (Hh) signaling pathway” (E-THERAPEUTICS PLC, priority 2016, dated 2021).

For this experiment, the system named is C3H10T1/2 cells. Nature of the experiment: C3H assay: differentiation of C3H10T1/2 cells by mSHH, measurement of alkaline phosphatase. The format is cell-based, mouse. As to conditions: Mus musculus, C3H 10T1/2; C3H10T1/2 cells stimulated with mSHH for 72 hours; alkaline phosphatase activity; read-out: IC50 Ranges.
Usually IC50 stands for the concentration that gives 50% inhibition. Regarding `Cc1noc(C)c1COC(=O)N1CC(S(=O)(=O)N2CCC(c3c[nH]c4ncccc34)CC2)C1` [Compound 62, (3,5-Dimethylisoxazol-4-yl)methyl 3-[[4-(1H-pyrrolo[2,3-b]pyridin-3-yl)-1-piperidyl]sulfonyl]azetidine-1-carboxylate], the half-maximal inhibitory concentration (IC50) was 10 to 100 nM.

Regarding `Cc1noc(C)c1CC(=O)N1CC(S(=O)(=O)N2CCC(c3c[nH]c4ncccc34)CC2)C1` [Compound 63, 2-(3,5-dimethyl-1,2-oxazol-4-yl)-1-[3-[4-(1H-pyrrolo[2,3-b]pyridin-3-yl)piperidin-1-yl]sulfonylaze-tidin-1-yl]ethanone], the 50% inhibitory concentration (IC50) lay within 10 to 100 nM. Under `CC1(C)CCCC(C)(C)N1C(=O)N1CC(S(=O)(=O)N2CCC(c3c[nH]c4ncccc34)CC2)C1` [Compound 64, [3-[4-(1H-pyrrolo[2,3-b]pyridin-3-yl)piperidin-1-yl]sulfonylaze-tidin-1-yl]-(2,2,6,6-tetramethylpiperidin-1-yl)methanone] stands 10 to 100 nM. Under `COCCOC(=O)N1CC(S(=O)(=O)N2CCC(c3c[nH]c4ncccc34)CC2)C1` [Compound 65, 2-methoxyethyl 3-[4-(1H-pyrrolo[2,3-b]pyridin-3-yl)piperidin-1-yl]sulfonylaze-tidine-1-carboxylate] stands 100 to 1000 nM; under `CC(C)(C)COC(=O)N1CC(S(=O)(=O)N2CCC(c3c[nH]c4ncccc34)CC2)C1` [Compound 66, 2,2-dimethylpropyl 3-[4-(1H-pyrrolo[2,3-b]pyridin-3-yl)piperidin-1-yl]sulfonylaze-tidine-1-carboxylate], 10 to 100 nM. Take `O=S(=O)(C1CN(Cc2cccs2)C1)N1CCC(c2c[nH]c3ncccc23)CC1` [Compound 68, 3-[1-[1-(thiophen-2-ylmethyl)azetidin-3-yl]sulfonylpiper-idin-4-yl]-1H-pyrrolo[2,3-b]pyridine]: the IC50 lay within 100 to 1000 nM. The same measure for `O=S(=O)(C1CN(Cc2ccc[nH]2)C1)N1CCC(c2c[nH]c3ncccc23)CC1` [Compound 69, 3-[1-[1-(1H-pyrrol-2-ylmethyl)azetidin-3-yl]sulfonylpiper-idin-4-yl]-1H-pyrrolo[2,3-b]pyridine]: 100 to 1000 nM; for `O=S(=O)(C1CN(Cc2ccco2)C1)N1CCC(c2c[nH]c3ncccc23)CC1` [Compound 70, 3-[1-[1-(furan-2-ylmethyl)azetidin-3-yl]sulfonylpiper-idin-4-yl]-1H-pyrrolo[2,3-b]pyridine]: 100 to 1000 nM. For `O=S(=O)(C1CN(c2ccncc2)C1)N1CCC(c2c[nH]c3ncccc23)CC1` [Compound 71, 3-[1-(1-pyridin-4-ylazetidin-3-yl)-sulfonylpiper-idin-4-yl]-1H-pyrrolo[2,3-b]pyridine], the concentration for half-maximal inhibition (IC50) lay in the range of 1000 to 10000 nM. `O=C(c1ccncc1)N1CC(S(=O)(=O)N2CCC(c3c[nH]c4ncccc34)CC2)C1` [Compound 72, pyridin-4-yl-[3-[4-(1H-pyrrolo[2,3-b]pyridin-3-yl)piperidin-1-yl]sulfonylaze-tidin-1-yl]methanone]: the IC50 is 1000 to 10000 nM. Under `CC(C)(C)C(=O)N1CC(S(=O)(=O)N2CCC(c3c[nH]c4ncccc34)CC2)C1` [Compound 73, 2,2-dimethyl-1-[3-[4-(1H-pyrrolo[2,3-b]pyridin-3-yl)piperidin-1-yl]sulfonylaze-tidin-1-yl]propan-1-one] stands 100 to 1000 nM; under `CC(C)(C)c1ccc(C(=O)N2CC(S(=O)(=O)N3CCC(c4c[nH]c5ncccc45)CC3)C2)cc1` [Compound 74, (4-tert-butylphenyl)-[3-[4-(1H-pyrrolo[2,3-b]pyridin-3-yl)piperidin-1-yl]sulfonylaze-tidin-1-yl]methanone], 1000 to 10000 nM. The same measure for `O=C(OCc1ccccc1)N1CC(S(=O)(=O)N2CCC(c3c[nH]c4ncccc34)CC2)C1` [Compound 76, benzyl 3-[4-(1H-pyrrolo[2,3-b]pyridin-3-yl)piperidin-1-yl]sulfonylaze-tidine-1-carboxylate]: 10 to 100 nM. Under `O=C(Oc1ccc(F)cc1)N1CC(S(=O)(=O)N2CCC(c3c[nH]c4ncccc34)CC2)C1` [Compound 77, (4-fluorophenyl) 3-[4-(1H-pyrrolo[2,3-b]pyridin-3-yl)piperidin-1-yl]sulfonylaze-tidine-1-carboxylate] stands 10 to 100 nM; under `O=C(NCc1cocn1)N1CC(S(=O)(=O)N2CCC(c3c[nH]c4ncccc34)CC2)C1` [Compound 78, N-(1,3-oxazol-4-ylmethyl)-3-[4-(1H-pyrrolo[2,3-b]pyridin-3-yl)piperidin-1-yl]sulfonylaze-tidine-1-carboxamide], 100 to 1000 nM; under `O=C(N1CC(S(=O)(=O)N2CCC(c3c[nH]c4ncccc34)CC2)C1)n1ccnc1` [Compound 79, imidazol-1-yl-[3-[4-(1H-pyrrolo[2,3-b]pyridin-3-yl)piperidin-1-yl]sulfonylaze-tidin-1-yl]methanone], 1000 to 10000 nM. `O=C(NCc1cncs1)N1CC(S(=O)(=O)N2CCC(c3c[nH]c4ncccc34)CC2)C1` [Compound 80, 3-[4-(1H-pyrrolo[2,3-b]pyridin-3-yl)piperidin-1-yl]sulfonyl-N-(1,3-thiazol-5-ylmethyl)azetidine-1-carboxamide]: the IC50 lay in the range of 100 to 1000 nM. Turning to `Cn1ccc(CNC(=O)N2CC(S(=O)(=O)N3CCC(c4c[nH]c5ncccc45)CC3)C2)n1` [Compound 81, N-[(1-Methylpyrazol-3-yl)methyl]-3-[[4-(1H-pyrrolo[2,3-b]pyridin-3-yl)-1-piperidyl]sulfonyl]azetidine-1-carboxamide], the IC50 lay in the range of 100 to 1000 nM. As to `CCN(CC)C(=O)N1CC(S(=O)(=O)N2CCC(c3c[nH]c4ncccc34)CC2)C1` [Compound 82, N,N-diethyl-3-[4-(1H-pyrrolo[2,3-b]pyridin-3-yl)piperidin-1-yl]sulfonylaze-tidine-1-carboxamide], the IC50 lay in the range of 100 to 1000 nM.

With `O=C(OCc1ccco1)N1CC(S(=O)(=O)N2CCC(c3c[nH]c4ncccc34)CC2)C1` [Compound 83, furan-2-ylmethyl 3-[4-(1H-pyrrolo[2,3-b]pyridin-3-yl)piperidin-1-yl]sulfonylaze-tidine-1-carboxylate], the concentration for half-maximal inhibition (IC50) lay within 1000 to 10000 nM. Take `O=C(NCc1cccs1)N1CC(S(=O)(=O)N2CCC(c3c[nH]c4ncccc34)CC2)C1` [Compound 85, 3-[4-(1H-pyrrolo[2,3-b]pyridin-3-yl)piperidin-1-yl]sulfonyl-N-(thiophen-2-ylmethyl)azetidine-1-carboxamide]: the concentration for half-maximal inhibition (IC50) fell in the range of 10 to 100 nM. Under `O=C(N1CCCCC1)N1CC(S(=O)(=O)N2CCC(c3c[nH]c4ncccc34)CC2)C1` [Compound 86, piperidin-l-yl-[3-[4-(1H-pyrrolo[2,3-b]pyridin-3-yl)piperidin-1-yl]sulfonylaze-tidin-1-yl]methanone] stands 100 to 1000 nM. Regarding `O=C(N1CCCC1)N1CC(S(=O)(=O)N2CCC(c3c[nH]c4ncccc34)CC2)C1` [Compound 87, pyrrolidin-1-yl-[3-[4-(1H-pyrrolo[2,3-b]pyridin-3-yl)piperidin-1-yl]sulfonylaze-tidin-1-yl]methanone], the IC50 fell in the range of 100 to 1000 nM. Regarding `CC(C)N1CC(S(=O)(=O)N2CCC(c3c[nH]c4ncccc34)CC2)C1` [Compound 89, 3-[1-(1-propan-2-ylazetidin-3-yl)sulfonylpiper-idin-4-yl]-1H-pyrrolo[2,3-b]pyridine], the IC50 is 1000 to 10000 nM.
